Columns and labels:
[1] = target: T1, ornithine 4,5-aminomutase (OAM) (Acetoanaerobium sticklandii, UniProt E3PY95); assay: UV-visible, stopped flow and EPR; external aldimine and Co-C homolysis; type: binding; parameters: gene oraE; C-terminal His6 (pET-OAMH2), expressed in E. coli; purified apoenzyme reconstituted with PLP and AdoCbl; OAM dimer printed (alpha2beta2 known); conditions: anaerobic, pH 8.5, 25 °C, 2.5 mM; inhibitor, covalent (PLP external aldimine)
T1 sequence (E3PY95 1-740): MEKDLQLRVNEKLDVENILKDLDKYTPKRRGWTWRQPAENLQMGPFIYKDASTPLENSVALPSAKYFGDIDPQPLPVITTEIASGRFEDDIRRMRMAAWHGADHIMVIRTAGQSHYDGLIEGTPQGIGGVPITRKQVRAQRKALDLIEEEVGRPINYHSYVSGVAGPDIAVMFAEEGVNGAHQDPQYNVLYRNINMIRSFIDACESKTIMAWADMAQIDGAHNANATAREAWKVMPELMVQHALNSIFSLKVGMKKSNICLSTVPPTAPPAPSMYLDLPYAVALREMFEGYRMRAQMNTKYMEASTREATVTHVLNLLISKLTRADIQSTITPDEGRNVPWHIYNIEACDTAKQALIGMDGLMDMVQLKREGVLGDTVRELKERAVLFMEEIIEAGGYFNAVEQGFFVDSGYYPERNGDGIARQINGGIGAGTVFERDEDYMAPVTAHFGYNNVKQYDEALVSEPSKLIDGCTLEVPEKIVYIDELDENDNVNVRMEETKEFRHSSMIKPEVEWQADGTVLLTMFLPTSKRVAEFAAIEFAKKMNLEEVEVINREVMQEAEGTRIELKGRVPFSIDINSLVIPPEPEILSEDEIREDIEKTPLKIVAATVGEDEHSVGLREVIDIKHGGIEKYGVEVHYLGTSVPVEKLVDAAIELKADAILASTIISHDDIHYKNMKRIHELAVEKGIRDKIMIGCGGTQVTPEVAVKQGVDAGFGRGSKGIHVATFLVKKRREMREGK
T1 sequence (E3PY96 1-121 partner): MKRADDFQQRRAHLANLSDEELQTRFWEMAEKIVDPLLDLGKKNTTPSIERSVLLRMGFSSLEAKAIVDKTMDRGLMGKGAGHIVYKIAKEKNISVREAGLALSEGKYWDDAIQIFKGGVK

[2] = target: T1, ornithine 4,5-aminomutase (OAM); parameters: gene oraE; conditions: anaerobic, pH 8.5, 25 °C; equimolar with apoenzyme; covalent (Lys629)
[3] = target: T1, ornithine 4,5-aminomutase (OAM); assay: UV-visible spectra, external aldimine formation; type: binding; parameters: gene oraE; C-terminal His6 (pET-OAMH2), expressed in E. coli; purified apoenzyme reconstituted with PLP and AdoCbl; OAM dimer printed (alpha2beta2 known); conditions: aerobic, pH 8.5, 25 °C, 5 mM; inhibitor, covalent (PLP external aldimine)

NCCC(N)C(=O)O (racemic) [DL-2,4-diaminobutyric acid]
UV-visible, stopped flow and EPR; external aldimine and Co-C homolysis [1]: transimination induced by the DAB binding with PLP

Cc1ncc(COP(=O)(O)O)c(C=O)c1O [PLP]
UV-visible spectra, transimination at 416 nm [2]: transimination induced by the D-ornithine binding with PLP

NCC(N)C(=O)O (racemic) [DL-2,3-diaminopropanoic acid]
UV-visible spectra, external aldimine formation [3]: does not induce AdoCbl bond homolysis but does lead to external aldimine formation

From PMC4256349, “A Conformational Sampling Model for Radical Catalysis in Pyridoxal Phosphate- and Cobalamin-dependent Enzymes” (The Journal of Biological Chemistry, 2014)
